# From patent US20250270206A1, “COMPOSITIONS AND METHODS FOR INHIBITION OF RAS” (TheRas, Inc., priority 2022, published 2025)
# Experiments:
# [1] = biological target: T1, GppNHp-loaded KRAS4b (amino acids 1-169) G12C/C118S (Homo sapiens, UniProt P01116, C118S/G12C); assay: MALDI-TOF MS covalent Cys12 modification, GppNHp-loaded KRAS G12C; type: binding; settings: 15 minutes reaction time, 1 μM protein, 1:2.5 protein to compound ratio
# T1 construct: KRAS4b (amino acids 1-169) G12C/C118S protein; made in house
# Procedure: (§1) MALDI-TOF MS analysis was performed using 1 μM protein target, and 1:2.5 protein to compound ratio was used.
# (§2) Reaction: 1 μM of GppNHp, GTP, or GDP-loaded KRAS4b (amino acids 1-169) G12C/C118S protein (produced in-house by Protein Expression Laboratory, FNLCR/Leidos Biomed) in 20 mM 4-(2-hydroxyethyl)-1-piperazineethanesulfonic acid (HEPES) buffer containing 150 mM NaCl, 1 mM MgCl2, pH 7.3 was prepared freshly before assay. Ten-μL aliquots of protein were dispensed onto low volume 384-well plate, then 375 nL DMSO, and 25 nL of tested compounds from 5 mM DMSO stocks were added to appropriate wells using ECHO 555 acoustic liquid handler (Labcyte Inc.). For each reaction/assay, three blanks were prepared by mixing 10 μL of protein solution with 400 nL DMSO. The contents of the wells were carefully mixed by aspiration, and then each plate was sealed with an adhesive cover, centrifuged at 2000 g for 1 minute, and kept in the dark at room temperature until 5 min, 15 min, 30 min, 2 h, or 6 h collections.
# (§3) Target pretreatment: Before each assay MALDI target (Bruker MPT 384 ground steel BC) was pre-treated by pipetting on each spot 0.75 μL of saturated sinapinic acid in acetonitrile (ACN).
# (§4) Sample preparation: At collection time point, 2 μL of reaction mixtures were pipetted out into 20 μL MALDI matrix solution (saturated solution of sinapinic acid in 1:1 ACN:water solution containing 0.75% trifluoroacetic acid (TFA)) deposited on 384 well polypropylene plate. Resulting solution was mixed by aspiration, centrifuged at 2000 g for 1 minute, then 1 μL aliquots were dispensed on pre-treated MALDI target using Beckman Coulter Biomek FX^P 96/384-Span-8 Laboratory Automation Workstation. Finally, the MALDI target was dried under mild vacuum to produce spots with fine crystalline structure.
# (§5) Measurements: MALDI-TOF measurements were performed on a Bruker Daltonics rapifleX Tissuetyper TOF-TOF mass spectrometer using linear mode and mass range from 18.6 to 21.6 kDa. Detector gain was set to 3.3× (483 V), sample rate to 5 GS/s, real time smoothing to medium (175 MHz), laser smart beam pattern was set to: “MS Thin Layer M5”, and the laser frequency was 10000 Hz. Spectra were automatically collected using custom AutoXecute method. Laser power was auto adjusted using fuzzy control. The peak selection range was set to be between 19000 and 21500 Da. Peak evaluation uses half width parameter set to be smaller than 40 Da for processed spectrograms (centroid peak detection: smoothed by SavitzkyGolay algorithm using 7 m/z width and 2 cycles; baseline was subtracted using median algorithm with flatness 1 and median level 0.01). Fuzzy control used Proteins/Oligonucleotides protocol with minimum half width 1/10 times above threshold. Up to 40000 satisfactory shots were collected in 10000 shot steps. Dynamic termination was implemented to finish data collection when peak signal/noise ratio reached a value of 50.
# (§6) Spectra processing: Spectra were smoothed by SavitzkyGolay algorithm using 7 m/z width and three cycles. Centroid peak detection algorithm was used with signal to noise threshold set to 6, relative intensity threshold 4%, peak width 10 m/z and median baseline subtraction using flatness of 1 and median level of 0.01. Peak intensity and area under the peak were evaluated and recorded for all peaks between 19,300 Da and 21,550 Da.
# (§7) Calculation of percent modification: Percent modification was calculated as a ratio of peak height for protein modified by compound to sum of peak height of remaining protein plus peak height for protein modified by compound. If multiple modifications were observed each was calculated as a ratio of peak height for given modification versus sum of peak heights for all observed protein species. Data reported in Table 5 are from the 15 minutes reaction time point.
# [2] = biological target: T2, GTP-loaded KRAS4b (amino acids 1-169) G12C/C118S (Homo sapiens, UniProt P01116, C118S/G12C); assay: MALDI-TOF MS covalent Cys12 modification, GTP-loaded KRAS G12C; type: binding; settings: 15 minutes reaction time, 1 μM protein, 1:2.5 protein to compound ratio
# T2 construct: KRAS4b (amino acids 1-169) G12C/C118S protein; made in house
# Procedure: as §1, §2, §3, §4, §5, §6, §7
# [3] = biological target: T3, GDP-loaded KRAS4b (amino acids 1-169) G12C/C118S (Homo sapiens, UniProt P01116, C118S/G12C); assay: MALDI-TOF MS covalent Cys12 modification, GDP-loaded KRAS G12C; type: binding; settings: 15 minutes reaction time, 1 μM protein, 1:2.5 protein to compound ratio
# T3 construct: KRAS4b (amino acids 1-169) G12C/C118S protein; made in house
# Procedure: as §1, §2, §3, §4, §5, §6, §7
# [4] = biological target: T4, Avi-KRAS G12C (1-169) GppNHp/RAF1 RBD-3×FLAG (52-151) (Homo sapiens, UniProt P01116, G12C); assay: KRAS G12C-effector (RAF1 RBD) protein:protein interaction HTRF disruption assay; type: biochemical; settings: PPI HTRF
# T4 construct: Avi-KRAS G12C (1-169) GppNHp
# Procedure: A protein:protein interaction (PPI) Homogeneous Time Resolved Fluorescence (HTRF) assay was used to determine the effectiveness of compounds of the present disclosure in disrupting KRAS G12C protein and effector (RAF1) binding.
# The HTRF assay used the following reagents and proteins: 50 nM Avi-KRAS G12C (1-169) GppNHp/RAF1 RBD-3×FLAG (52-151); 75 nM Avi-RAF1 RBD-3×FLAG; Assay Buffer: 50 mM Tris pH 7.5, 100 mM NaCl, 5 mM MgCl2, 0.1% BSA, 0.01% Tween 20, 10% DMSO; Bead Buffer: 50 mM Tris pH 7.5, 0.01% Tween 20; Assay volume: 20 μL (384 well plate-low volume format); and Compound titration: 30-0.02 μM, 3× dilution series.
# The HTRF assay employed the following protocol:
# Compounds were dispensed in assay plate (384-well, Grenier Bione #784075) using Echo (model 555) with dose response settings: 200 nL final volume, titration from 100 μM as a 10-point dilution series. KRAS proteins were prepared in assay buffer, and dispensed on plates, 5 μL per well, then incubated for 1 h at room temperature, with 700 rpm shaking. RAF1 RBD were prepared in assay buffer, dispensed onto plates, 5 μL per well, and then incubated for 1 h at room temperature, with 700 rpm shaking. Reagent mix was then prepared and dispensed on plates, 10 μL per well, and then incubated for 1 h at room temperature, with 700 rpm shaking.
# Plates were analyzed on an Envision plate reader using the following setting: Excitation 320 nm, Bandwidth 75 nm, Emission 615 nm, Bandwidth 85 nm; Gain 100%; Flashes 100; Lag 60 μs. Data was reported as percentage of activity, with DMSO as 100%. Data was plotted and analyzed using Prism 8.
# pERK in NCI-H358 cells = assay: Cell-based pERK HTRF assay; settings: Homo sapiens, 0.5 h, 30 min incubation
# Procedure: pERK HTRF assays (Perkin Elmer) were used to determine the effectiveness of compounds of the present disclosure in disrupting KRAS G12C protein/effector signaling in cells.
# On Day 1, cells (NCI-H358) were seeded into 96-well plates at 4×10^4 cells/well in complete growth media (RPMI, 10% FBS).
# On Day 2, cells were treated with compounds at 0.25% DMSO. The source plate was created with compounds diluted in media at 5-fold the final assay concentration. The compounds were run in a 9-point concentration curve starting at 75 μM, with a 3-fold dilution between concentrations. 20 μL was transferred onto the cell plates (final volume in wells was 100 μL). Plates were harvested after 30 min incubation by aspirating media and adding kit-supplied 1× supplemented lysis buffer to all wells (75 μL per well). Plates were then placed on a plate shaker and incubated at 850 rpm for an additional 30 min.
# Antibody mixture solution was prepared by diluting aliquoted d2 and Eu Cryptate antibodies 1:20 in kit supplied detection buffer, then mixed the diluted antibodies solutions (1:1 v:v). 4 μL of this solution was then added to a 384-well detection plate (Perkin Elmer; 6008230).
# Samples were homogenized by pipetting up and down and then transferred (16 μL of cell lysates) from the 96-well cell culture plate to two wells of the HTRF 384-well detection plate containing the antibody solution. Plates were centrifuged (524 g for 1 min) and allowed to incubate between 4 and 24 h at room temperature. Maximum signal is reached after 4 h incubation time and remains stable over a period of 24 hours. Therefore, readings can be made between 4 and 24 h of incubation. Plates were centrifuged again (524 g for 1 min) and analyzed on the EnVision plate reader using the following settings: Excitation 320 nm, Bandwidth 75 nm; Emission 615 nm, Bandwidth 85 nm; Gain 100%; Flashes 100; Lag 60 μs.
Compound,GppNHp-KRAS G12C percent of modification [1],GTP-KRAS G12C percent of modification [2],GDP-KRAS G12C percent of modification [3],IC50 [4],IC50 (pERK in NCI-H358 cells)
C=CC(=O)N1CC[C@@H](N(CC)c2nc(OC[C@@]34CCCN3C[C@H](F)C4)nc3c(Cl)c(-c4ccc(F)c5sc(N)c(C#N)c45)ncc23)[C@@H]1CC [Compound 49],D (percent of modification <10%),D (percent of modification <10%),A (percent of modification ≥70%),500 to 5000 nM,100 to 1000 nM
C=CC(=O)N1CCC(N(CC)c2nc(OC[C@@]34CCCN3C[C@H](F)C4)nc3c(F)c(-c4ccc(F)c5sc(N)c(C#N)c45)ncc23)[C@H]1COC (stereo partly drawn) [Compound 25],A (percent of modification ≥70%),A (percent of modification ≥70%),A (percent of modification ≥70%),≤ 500 nM,100 to 1000 nM
C=CC(=O)N1CC[C@@H](N(C)c2nc(OC[C@@]34CCCN3C[C@H](F)C4)nc3c(F)c(-c4ccc(F)c5sc(N)c(C#N)c45)ncc23)[C@H]1CC [Compound 42],A (percent of modification ≥70%),A (percent of modification ≥70%),A (percent of modification ≥70%),≤ 500 nM,100 to 1000 nM
C=CC(=O)N1CCC(N(C)c2nc(OC[C@@H]3C[C@@H](OC)CN3C)nc3c(F)c(-c4ccc(F)c5sc(N)c(C#N)c45)ncc23)[C@H]1COC (stereo partly drawn) [Compound 20],A (percent of modification ≥70%),A (percent of modification ≥70%),A (percent of modification ≥70%),≤ 500 nM,100 to 1000 nM
C=CC(=O)N1C[C@@H](F)[C@@H](N(C)c2nc(OC[C@@]34CCCN3C[C@H](F)C4)nc3c(F)c(-c4ccc(F)c5sc(N)c(C#N)c45)ncc23)C1 [Compound 11],A (percent of modification ≥70%),A (percent of modification ≥70%),A (percent of modification ≥70%),≤ 500 nM,≤ 100 nM

# Second part, the compound after the results:
GppNHp-KRAS G12C percent of modification [1],GTP-KRAS G12C percent of modification [2],GDP-KRAS G12C percent of modification [3],IC50 [4],IC50 (pERK in NCI-H358 cells),Compound
C (10%≤percent of modification <50%),C (10%≤percent of modification <50%),A (percent of modification ≥70%),≤ 500 nM,100 to 1000 nM,"C=CC(=O)N1CC[C@@H](N(C)c2nc(N3CC(N4CC5(CC5)C4)C3)nc3c(F)c(-c4ccc(F)c5sc(N)c(C#N)c45)ncc23)C1 [Compound 14, 2-amino-4-[2-[3-(5-azaspiro[2.3]hexan-5-yl)azetidin-1-yl]-8-fluoro-4-[methyl-[(3R)-1-prop-2-enoylpyrrolidin-3-yl]amino]pyrido[4,3-d]pyrimidin-7-yl]-7-fluoro-benzothiophene-3-carbonitrile]"
A (percent of modification ≥70%),A (percent of modification ≥70%),A (percent of modification ≥70%),≤ 500 nM,100 to 1000 nM,C=CC(=O)N1CCC(N(C)c2nc(OC[C@@H]3C[C@@H](F)CN3C)nc3c(F)c(-c4ccc(F)c5sc(N)c(C#N)c45)ncc23)[C@H]1COC (stereo partly drawn) [Compound 27]
A (percent of modification ≥70%),A (percent of modification ≥70%),A (percent of modification ≥70%),≤ 500 nM,≤ 100 nM,"C=CC(=O)N1CC[C@@H](N(C)c2nc(OC[C@@]34CCCN3C[C@H](F)C4)nc3c(F)c(-c4ccc(F)c5sc(N)c(C#N)c45)ncc23)C1 [Compound 6, 2-amino-7-fluoro-4-[8-fluoro-2-[[(2R,8S)-2-fluoro-1,2,3,5,6,7-hexahydropyrrolizin-8-yl]methoxy]-4-[methyl-[(3R)-1-prop-2-enoylpyrrolidin-3-yl]amino]pyrido[4,3-d]pyrimidin-7-yl]benzothiophene-3-carbonitrile]"
A (percent of modification ≥70%),A (percent of modification ≥70%),A (percent of modification ≥70%),≤ 500 nM,100 to 1000 nM,C=CC(=O)N1CCC(N(CC)c2nc(OC[C@@]34CCCN3C[C@H](F)C4)nc3c(Cl)c(-c4ccc(F)c5sc(N)c(C#N)c45)ncc23)[C@H]1COC (stereo partly drawn) [Compound 30]
